Tests used:
human GR [1] = molecular target: T1, human GR (Homo sapiens, UniProt P04150); assay: Transrepression Assay (GITAR), TNFα-β-lactamase reporter in U937 cells; assay type: cell-based; design: U937 cells contain an endogenous glucocorticoid receptor (GR); endogenous in cells; host or cells: U937 cells stably transfected with the TNF-alpha promoter/beta-lactamase reporter; settings: for GITAR > GRAMM % SEP: GITAR Emax minus GRAMMER Emax; for EC50: U937 cells, inflection point, read-out: Transrepression U937 Cells GITAR IP
T1 sequence (P04150 1-777): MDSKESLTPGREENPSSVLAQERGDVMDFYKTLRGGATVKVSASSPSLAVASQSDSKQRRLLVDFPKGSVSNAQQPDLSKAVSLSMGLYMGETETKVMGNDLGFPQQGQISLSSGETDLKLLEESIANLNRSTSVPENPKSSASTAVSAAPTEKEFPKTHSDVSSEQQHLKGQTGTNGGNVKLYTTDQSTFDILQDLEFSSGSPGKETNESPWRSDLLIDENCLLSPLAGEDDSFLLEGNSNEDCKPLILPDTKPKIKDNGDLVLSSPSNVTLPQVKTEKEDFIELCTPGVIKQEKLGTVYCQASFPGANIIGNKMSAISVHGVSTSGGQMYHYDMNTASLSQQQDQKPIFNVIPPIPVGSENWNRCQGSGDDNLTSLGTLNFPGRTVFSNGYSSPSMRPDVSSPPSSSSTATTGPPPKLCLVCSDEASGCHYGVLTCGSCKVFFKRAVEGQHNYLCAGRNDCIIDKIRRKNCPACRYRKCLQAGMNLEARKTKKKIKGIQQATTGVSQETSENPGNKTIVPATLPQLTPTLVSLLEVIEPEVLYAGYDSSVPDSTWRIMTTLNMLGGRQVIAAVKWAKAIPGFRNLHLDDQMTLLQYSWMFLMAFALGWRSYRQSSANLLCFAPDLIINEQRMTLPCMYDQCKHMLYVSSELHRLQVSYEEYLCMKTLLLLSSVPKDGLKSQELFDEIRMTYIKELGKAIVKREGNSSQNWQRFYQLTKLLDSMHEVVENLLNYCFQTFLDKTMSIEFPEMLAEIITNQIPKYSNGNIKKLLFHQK
How it was run: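 U937 cells with endogenous GR, stably carrying TNFα promoter–β-lactamase, preincubated with compound 30–45 min at 37° C, then stimulated with PMA 5 ng/ml and LPS 100 ng/ml (final) ~18 hr. Read-out via CCF2-AM loading; repression by 100 nM dexamethasone set as 100%.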

human GR [2] = molecular target: T1, human GR; assay: Trans-Activation Modulation of Glucocorticoid Receptor (GRAMMER), MMTV-LUC reporter, agonist mode; assay type: cell-based; design: endogenous in cells; settings: for Emax: A549, A549 cells, maximum activity, read-out: Transactivation A549 Cells GRAMMER Emax; for EC50: A549 cells, inflection point, read-out: Transactivation A549 Cells GRAMMER IP
How it was run: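 Readout is luciferase from a modified MMTV LTR promoter after 24 h compound exposure alongside 10 nM dexamethasone (100% activity reference), DMSO ≤1%.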

[3] = U-937, U937 cells, maximum activity, read-out: Transrepression U937 Cells GITAR Emax
[4] = U-937, activity repressed by 100 nM dexamethasone alone set as 100%, read-out: maximal activity in the transrepression (GITAR) assay

Row | Compound | GITAR > GRAMM % SEP (human GR [1]) | EC50 (human GR [1]) | Emax (human GR [1]; [3]) | Emax (human GR [1]; [4]) | Emax (human GR [2]) | EC50 (human GR [2])
1 | CC([C@H]1CCC2=Cc3c(cnn3-c3ccc(F)cc3)C[C@@]21C)N(CCc1ccccn1)S(=O)(=O)Cc1cccnc1 (stereo partly drawn) [Example 197, N-{1-[(4αR)-1-(4-fluorophenyl)-4α-methyl-1,4,4α,5,6,7-hexahydrocyclopenta[f]indazol-5-yl]ethyl}-1-pyridin-3-yl-N-(2-pyridin-2-ylethyl)methanesulfonamide] | 1.8% | 1040 nM | 45.5% | > 5% | 43.7% | 769 nM
2 | Cc1cc(S(=O)(=O)N(CC#N)C[C@H]2CCC3=Cc4c(cnn4-c4ccc(F)cc4)C[C@@]32C)c(C)cc1Cl [Example 29, 4-chloro-N-(cyanomethyl)-N-{[(4αR,5S)-1-(4-fluorophenyl)-4α-methyl-1,4,4α,5,6,7-hexahydrocyclopenta[f]indazol-5-yl]methyl}-2,5-dimethylbenzenesulfonamide] | 26.2% | 838 nM | 30.9% | > 5% | 4.7% | 1710 nM
3 | Cc1oncc1S(=O)(=O)N(CC#N)C[C@H]1CCC2=Cc3c(cnn3-c3ccc(F)cc3)C[C@@]21C [Example 23, N-(cyanomethyl)-N-{[(4αR,5S)-1-(4-fluorophenyl)-4α-methyl-1,4,4α,5,6,7-hexahydrocyclopenta[f]indazol-5-yl]methyl}-5-methylisoxazole-4-sulfonamide] | 31.3% | 2250 nM | 34% | > 5% | 2.7% | 8790 nM

Now those with a lower EC50 (human GR [1]), led by results:

Row | GITAR > GRAMM % SEP (human GR [1]) | EC50 (human GR [1]) | Emax (human GR [1]; [3]) | Emax (human GR [1]; [4]) | Emax (human GR [2]) | EC50 (human GR [2]) | Compound
4 | 31.6% | 362 nM | 91.9% | > 5% | 60.3% | 124 nM | C[C@]12Cc3cnn(-c4ccc(F)cc4)c3C=C1CC[C@@H]2CN(CC#N)S(=O)(=O)c1cc(OCC(F)(F)F)ccc1OCC(F)(F)F [Example 41, N-(cyanomethyl)-N-{[(4αR,5S)-1-(4-fluorophenyl)-4α-methyl-1,4,4α,5,6,7-hexahydrocyclopenta[f]indazol-5-yl]methyl}-2,5-bis(2,2,2-trifluoroethoxy)benzenesulfonamide]
5 | 12.6% | 520 nM | 83% | > 5% | 70.4% | 364 nM | COCCN(C[C@H]1CCC2=Cc3c(cnn3-c3ccc(F)cc3)C[C@@]21C)S(=O)(=O)c1c(C)noc1C [Example 173, N-{[(4αR,5S)-1-(4-fluorophenyl)-4α-methyl-1,4,4α,5,6,7-hexahydrocyclopenta[f]indazol-5-yl]methyl}-N-(2-methoxyethyl)-3,5-dimethylisoxazole-4-sulfonamide]
6 | 49.5% | 540 nM | 72.2% | > 5% | 22.7% | 745 nM | C[C@]12Cc3cnn(-c4ccc(F)cc4)c3C=C1CC[C@@H]2CN(CC#N)S(=O)(=O)c1cccc(C#N)c1 [Example 36, 3-cyano-N-(cyanomethyl)-N-{[(4αR,5S)-1-(4-fluorophenyl)-4α-methyl-1,4,4α,5,6,7-hexahydrocyclopenta[f]indazol-5-yl]methyl}benzenesulfonamide]
7 | 18.6% | 170 nM | 74% | > 5% | 55.4% | 303 nM | C[C@]12Cc3cnn(-c4ccc(F)cc4)c3C=C1CC[C@@H]2CN(CCCc1ccccc1)S(=O)(=O)CC(F)(F)F [Example 193, 2,2,2-trifluoro-N-{[(4αR,5S)-1-(4-fluorophenyl)-4α-methyl-1,4,4α,5,6,7-hexahydrocyclopenta[f]indazol-5-yl]methyl}-N-(3-phenylpropyl)ethanesulfonamide]
